Measured values taken from patent US20250276074A1, “BRM AND BRG1 TARGETING ANTIBODY-DRUG CONJUGATES AND METHODS OF USE THEREOF” (Prelude Therapeutics Incorporated, priority 2024, published 2025).

Legend:
[1] = biological target: T1, SMARCA4 (Homo sapiens, UniProt P51532); assay: SMARCA4 HiBiT degradation assay in HeLa cells; format: cell-based; parameters: SMARCA4-HiBiT knock-in Hela monoclonal cell (CS3023226) were purchased from Promega; host or cells: HeLa SMARCA4-HiBiT knock-in monoclonal cells (heterozygous); conditions: 18 hours; for Dmax: HeLa
Protocol: (§1) HiBiT peptide knock-in of SMARCA2 in LgBiT expressing HEK293T cells was performed by CRISPR-mediated tagging system as described Promega. The homozygous HiBiT knock-in on c-terminus SMARCA2 was confirmed by sanger sequence. SMARCA2-HiBiT knock-in Hela monoclonal cell (CS302366) and SMARCA4-HiBiT knock-in Hela monoclonal cell (CS3023226) were purchased from Promega. The heterozygous HiBiT-knock-in was confirmed by sanger sequence in both SMARCA2-HiBiT and SMARCA4-HiBiT monoclonal cells.
(§2) Dispense 10ul aliquot of prepared Hela-SMARCA2-HiBiT or Hela-SMARCA4-HiBiT cells (1:1 ratio of cells:Trypan Blue (#1450013, Bio-Rad)) onto cell counting slide (#145-0011, Bio-Rad) and obtain cell density and cell viability using cell counter (TC20, Bio-Rad). Remove appropriate volume of resuspended cells from culture flask to accommodate 2500 cells/well @20 μL/well. Transfer Hela-HiBiT cells to 50 mL conical (#430290, Corning). Spin down at 1000 rpm for 5 min using tabletop centrifuge (SPINCHRON 15, Beckman). Discard supernatant and resuspend cell pellet in modified EMEM (#30-2003, ATCC) cell culture media containing 10% FBS (F2422-500ML, Sigma), and 1× Penicillin/Streptomycin (200 g/L) (30-002-CI, Corning) to a cell density of 125,000 cells/mL. Dispense […] of resuspended Hela-HiBit cells per well in 384-well TC treated plate (#12-565-343, Thermo Scientific) using standard cassette (#50950372, Thermo Scientific) on Multidrop Combi (#5840310, Thermo Scientific) inside laminar flow cabinet.
(§3) The degrader compounds of Table 4 were dissolved in DMSO to make 10 mM stock and 3-fold series dilutions were further conducted keeping the highest concentration 10 μM. Dispense test compounds onto plates using digital liquid dispenser (D300E, Tecan). Incubate plates in humidified tissue culture incubator at 37° C. for 18 hours. Add […] of prepared Nano-Glo® HiBiT Lytic detection buffer (N3050, Promega) to each well of 384-well plate using small tube cassette (#24073295, Thermo Scientific) on Multidrop Combi, incubate at room temperature for 30-60 min. Read plates on microplate reader (Envision 2105, PerkinElmer) using 384 well Ultra-Sensitive luminescence mode. Raw data files and compound information reports are swept into centralized data lake and deconvoluted using automated scripts designed by TetraScience, Inc. Data analysis, curve-fitting and reporting done in Dotmatics Informatics Suite using Screening Ultra module.

[2] = biological target: T2, SMARCA2 (Homo sapiens, UniProt P51531); assay: SMARCA2 HiBiT degradation assay in HeLa cells; format: cell-based; conditions: 18 hours
Protocol: as §1, §2, §3

[3] = system: PSMA negative PC3 tumors; assay: Tumor growth inhibition in PSMA negative PC3 tumors, weekly administration; format: in vivo, mouse; conditions: FIGS. 3A-3B
[4] = biological target: T2, SMARCA2; assay: Single dose pharmacodynamics, SMARCA2 in LNCaP tumors by western blot; format: in vivo; parameters: from tissue; host or cells: LNCaP xenograft tumours from CB17 SCID mice; conditions: mouse, LNCaP tumors in mice, tumors collected 1-5 days later, read-out: maximal degradation of SMARCA2
Protocol: (§4) In-life evaluation was conducted using 6-8-week-old male CB17 SCID mice that were subcutaneously inoculated with LNCaP tumor cells mixed 1:1 with Matrigel. Mice were castrated 3 days prior to randomization, which was done when tumors for efficacy evaluation would reach 100 mm^3-400 mm^3. […] Tumors were subsequently homogenized, and proteins were extracted before evaluating SMARCA2 and SMARCA4 expression by western blot.

[5] = system: PSMA+ prostate cancer CDX (LNCaP); assay: Anti-tumor efficacy in PSMA+ prostate cancer CDX (LNCaP); format: in vivo; conditions: castrated male CB17 SCID mice, 10 mg/kg s.c. Q3D, day 21
Protocol: as §4

[6] = biological target: T1, SMARCA4; assay: Single dose pharmacodynamics, SMARCA4 in LNCaP tumors by western blot; format: in vivo; parameters: from tissue; host or cells: LNCaP xenograft tumours from CB17 SCID mice; conditions: mouse, LNCaP tumors in mice, tumors collected 1-5 days later, read-out: maximal degradation of SMARCA4
Protocol: as §4

[7] = Body weight and survival of mice in the PC3 tumor study; format: in vivo, mouse; conditions: weekly administration, FIGS. 3A-3B
[8] = Tolerability in the LNCaP CDX efficacy study; conditions: CB17 SCID mice with LNCaP tumors
Protocol: In-life evaluation was conducted using 6-8-week-old male CB17 SCID mice that were subcutaneously inoculated with LNCaP tumor cells mixed 1:1 with Matrigel. Mice were castrated 3 days prior to randomization, which was done when tumors for efficacy evaluation would reach 100 mm^3-400 mm^3.

[9] = system: SMARCA4 mutated cancer cells; conditions: Vangamudi et al. Cancer Res 2015; cited from earlier work
[10] = iv, single dose 20 mg/kg i.v. infusion

T2 sequence (P51531 whole entry): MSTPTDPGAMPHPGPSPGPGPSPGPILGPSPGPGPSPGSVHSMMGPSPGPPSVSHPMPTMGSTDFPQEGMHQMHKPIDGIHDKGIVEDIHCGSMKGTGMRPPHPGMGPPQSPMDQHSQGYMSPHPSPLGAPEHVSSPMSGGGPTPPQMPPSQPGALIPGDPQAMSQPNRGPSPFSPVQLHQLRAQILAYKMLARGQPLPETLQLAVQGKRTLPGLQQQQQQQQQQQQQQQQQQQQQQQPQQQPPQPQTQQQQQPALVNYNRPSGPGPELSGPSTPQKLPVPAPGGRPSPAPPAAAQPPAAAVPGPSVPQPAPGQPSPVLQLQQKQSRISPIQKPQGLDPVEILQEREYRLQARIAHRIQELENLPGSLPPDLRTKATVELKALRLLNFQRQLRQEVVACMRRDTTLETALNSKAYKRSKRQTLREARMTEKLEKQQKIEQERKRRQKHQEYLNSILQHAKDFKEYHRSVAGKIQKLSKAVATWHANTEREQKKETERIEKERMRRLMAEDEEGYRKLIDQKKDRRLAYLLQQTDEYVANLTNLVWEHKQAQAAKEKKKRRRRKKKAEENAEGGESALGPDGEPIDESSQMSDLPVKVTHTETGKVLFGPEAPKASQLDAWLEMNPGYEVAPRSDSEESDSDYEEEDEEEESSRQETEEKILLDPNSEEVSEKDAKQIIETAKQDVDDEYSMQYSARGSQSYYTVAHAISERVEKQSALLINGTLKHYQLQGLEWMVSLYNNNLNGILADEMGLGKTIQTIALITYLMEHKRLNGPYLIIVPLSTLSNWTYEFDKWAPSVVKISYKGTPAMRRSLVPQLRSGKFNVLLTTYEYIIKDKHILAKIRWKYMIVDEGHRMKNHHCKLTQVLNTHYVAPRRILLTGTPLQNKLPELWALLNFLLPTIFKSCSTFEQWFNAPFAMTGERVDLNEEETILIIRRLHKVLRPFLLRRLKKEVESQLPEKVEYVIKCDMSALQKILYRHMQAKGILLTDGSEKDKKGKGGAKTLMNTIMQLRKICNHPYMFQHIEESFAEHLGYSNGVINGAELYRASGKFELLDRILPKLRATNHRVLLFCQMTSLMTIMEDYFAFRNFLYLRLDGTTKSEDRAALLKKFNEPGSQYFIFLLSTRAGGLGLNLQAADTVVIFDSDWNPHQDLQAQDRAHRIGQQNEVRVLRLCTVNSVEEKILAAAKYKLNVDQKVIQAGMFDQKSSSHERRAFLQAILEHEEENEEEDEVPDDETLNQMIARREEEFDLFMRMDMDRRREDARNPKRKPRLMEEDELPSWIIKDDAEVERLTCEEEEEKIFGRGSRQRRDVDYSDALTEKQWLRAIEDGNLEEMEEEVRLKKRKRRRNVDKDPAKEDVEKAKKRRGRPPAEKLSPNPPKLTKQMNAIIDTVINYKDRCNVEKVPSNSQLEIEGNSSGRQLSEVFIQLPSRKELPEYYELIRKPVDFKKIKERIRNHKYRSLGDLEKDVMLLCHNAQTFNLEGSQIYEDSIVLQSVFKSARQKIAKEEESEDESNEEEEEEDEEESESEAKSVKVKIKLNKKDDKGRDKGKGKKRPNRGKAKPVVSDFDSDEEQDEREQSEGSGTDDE
T1 sequence (P51532 whole entry): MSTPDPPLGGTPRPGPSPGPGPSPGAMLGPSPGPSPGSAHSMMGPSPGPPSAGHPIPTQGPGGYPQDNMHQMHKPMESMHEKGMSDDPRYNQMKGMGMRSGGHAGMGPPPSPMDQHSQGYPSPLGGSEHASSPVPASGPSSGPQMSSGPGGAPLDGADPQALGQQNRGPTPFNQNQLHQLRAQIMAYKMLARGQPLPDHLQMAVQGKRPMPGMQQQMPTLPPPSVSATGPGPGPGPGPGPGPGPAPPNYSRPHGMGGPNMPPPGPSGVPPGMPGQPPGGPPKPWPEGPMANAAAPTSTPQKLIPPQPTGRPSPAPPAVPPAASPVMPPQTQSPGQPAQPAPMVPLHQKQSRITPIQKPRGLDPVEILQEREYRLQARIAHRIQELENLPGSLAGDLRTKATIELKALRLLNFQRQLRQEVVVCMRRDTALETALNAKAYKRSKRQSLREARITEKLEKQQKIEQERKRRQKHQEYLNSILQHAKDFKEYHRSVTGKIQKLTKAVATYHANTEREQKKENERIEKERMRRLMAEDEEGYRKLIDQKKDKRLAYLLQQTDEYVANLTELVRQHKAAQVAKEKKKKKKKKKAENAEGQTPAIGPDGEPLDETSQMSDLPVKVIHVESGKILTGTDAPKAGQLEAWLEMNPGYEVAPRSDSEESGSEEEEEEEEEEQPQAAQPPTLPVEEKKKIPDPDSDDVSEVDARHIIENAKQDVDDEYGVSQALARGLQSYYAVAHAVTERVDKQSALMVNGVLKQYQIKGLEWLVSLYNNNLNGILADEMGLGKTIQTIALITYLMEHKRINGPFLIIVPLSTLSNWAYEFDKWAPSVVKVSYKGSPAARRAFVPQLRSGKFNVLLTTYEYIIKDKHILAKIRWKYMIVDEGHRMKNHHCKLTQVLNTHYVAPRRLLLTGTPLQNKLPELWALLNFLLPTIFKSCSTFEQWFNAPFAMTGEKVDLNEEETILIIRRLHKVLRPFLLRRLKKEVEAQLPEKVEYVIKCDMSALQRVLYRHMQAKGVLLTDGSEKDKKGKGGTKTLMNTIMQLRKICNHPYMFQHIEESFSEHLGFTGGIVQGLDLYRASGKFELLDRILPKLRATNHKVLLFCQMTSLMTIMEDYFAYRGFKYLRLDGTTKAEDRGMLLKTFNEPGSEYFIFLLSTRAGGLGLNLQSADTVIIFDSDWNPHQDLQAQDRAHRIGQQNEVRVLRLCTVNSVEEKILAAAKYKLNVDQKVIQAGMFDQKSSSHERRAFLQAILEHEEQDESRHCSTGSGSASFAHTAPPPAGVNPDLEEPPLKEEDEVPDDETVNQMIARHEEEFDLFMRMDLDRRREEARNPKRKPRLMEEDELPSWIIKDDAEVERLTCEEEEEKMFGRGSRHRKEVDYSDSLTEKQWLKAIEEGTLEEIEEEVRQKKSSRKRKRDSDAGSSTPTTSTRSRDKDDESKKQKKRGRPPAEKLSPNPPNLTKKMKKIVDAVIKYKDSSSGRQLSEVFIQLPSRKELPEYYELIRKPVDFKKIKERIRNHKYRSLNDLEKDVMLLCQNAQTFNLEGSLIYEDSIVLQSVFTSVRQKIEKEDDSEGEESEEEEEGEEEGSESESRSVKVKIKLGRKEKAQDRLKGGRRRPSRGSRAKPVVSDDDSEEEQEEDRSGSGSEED

SMILES	DC50 [1]	DC50 [2]	Dmax [2]	Dmax [1]	further results
Cc1ncsc1-c1ccc([C@H](C)NC(=O)[C@@H]2C[C@@H](O)CN2C(=O)[C@@H](c2cc(OCCN3CCC(N4CCN5c6cc(-c7ccccc7O)nnc6N[C@H](C)[C@@H]5C4)CC3)no2)C(C)C)cc1 [Compound 12]	1 to 10 nM	1 to 10 nM	> 90%	> 90%	
Cc1cc(CN2CCN(c3ccc4c(c3)C(=O)N([C@H]3CCC(=O)NC3=O)C4)CC2)cnc1O[C@H]1CN2c3cc(-c4ccccc4O)nnc3NC[C@]2(C)C1 [Compound 4]	0.1 to 1 nM	< 0.1 nM			SMARCA4 Dmax [1]: A (Dmax>90%); SMARCA2 Dmax [2]: A (Dmax>90%)
Cc1cc(C(=O)N2CCN(c3ccc4c(c3)C(=O)N([C@H]3CCC(=O)NC3=O)C4)CC2)cnc1O[C@H]1CN2c3cc(-c4ccccc4O)nnc3NC[C@]2(C)C1 [Compound 5]	0.1 to 1 nM	< 0.1 nM	> 90%	50 to 90%	
Cc1ncsc1-c1ccc([C@H](C)NC(=O)[C@@H]2C[C@@H](O)CN2C(=O)[C@@H](c2cc(OCCN3CCC(CN4CCN5c6cc(-c7ccccc7O)nnc6NC[C@H]5C4)CC3)no2)C(C)C)cc1 [Compound 2]					tumor growth inhibition [3]: efficacious; Dmax at 10 mg/kg ([4]; sc, single dose 10 mg/kg s.c.): 99%; tumor growth inhibition (TGI) [5]: 93%; Dmax at 10 mg/kg ([6]; sc, single dose 10 mg/kg s.c.): 86%; mouse body weight loss and death [7]: caused mouse body weight loss and death; mice died during the study ([8]; 10 mg/kg s.c. Q3D): 83.3%
CC[C@]12CNc3nnc(-c4ccccc4O)cc3N1C[C@H](Oc1ncc(CN3CCN(c4ccc5c(c4)C(=O)N([C@H]4CCC(=O)NC4=O)C5)CC3)cc1C)C2 [Compound 6]	< 0.1 nM	< 0.1 nM	> 90%	> 90%	
CC[C@]12CNc3nnc(-c4ccccc4O)cc3N1C[C@H](Oc1ncc(C(=O)N3CCN(c4ccc5c(c4)C(=O)N([C@H]4CCC(=O)NC4=O)C5)CC3)cc1C)C2 [Compound 7]	0.1 to 1 nM	< 0.1 nM	> 90%	50 to 90%	
C[C@]12CNc3nnc(-c4ccccc4O)cc3N1C[C@H](Oc1ccc(CN3CCN(c4ccc5c(c4)C(=O)N([C@H]4CCC(=O)NC4=O)C5)CC3)cn1)C2 [Compound 1]	0.1 to 1 nM	< 0.1 nM	> 90%	> 90%	tumor growth inhibition [3]: did not induce significant tumor growth inhibition; Dmax at 20 mg/kg [4, 10]: 98%; Dmax at 20 mg/kg [6, 10]: 83%; body weight loss ([8]; 20 mg/kg i.v. infusion QW): minimal; mouse deaths ([8]; 20 mg/kg i.v. infusion QW): no mouse deaths
C[C@]12CNc3nnc(-c4ccccc4O)cc3N1C[C@H](Oc1ncc(CN3CCN(c4ccc5c(c4)C(=O)N([C@H]4CCC(=O)NC4=O)C5)CC3)cc1F)C2 [Compound 2]	0.1 to 1 nM	0.1 to 1 nM	> 90%	> 90%	
Cc1ncsc1-c1ccc([C@H](C)NC(=O)[C@@H]2C[C@@H](O)CN2C(=O)[C@@H](c2cc(OCCN3CCC(N4CCN5c6cc(-c7ccccc7O)nnc6N[C@@H](C)[C@@H]5C4)CC3)no2)C(C)C)cc1 [Compound 11]	1 to 10 nM	0.1 to 1 nM	> 90%	> 90%	
O=C(/C=C/N1C[C@H]2C[C@@H]1CN2c1ccccn1)c1ccccc1O [PFI-3]					effects on cell proliferation inhibition [9]: none to minor effects

Continued, in another order:

DC50 [1]	DC50 [2]	Dmax [2]	Dmax [1]	SMILES	further results
0.1 to 1 nM	0.1 to 1 nM	> 90%		Cc1cc(CN2CCN(c3ccc4c(c3)C(=O)N([C@H]3CCC(=O)NC3=O)C4)CC2)cnc1O[C@H]1CN2c3cc(-c4ccccc4O)nnc3NC[C@]2(C)C1 [Compound 3]	SMARCA4 Dmax [1]: B (50%<Dmax≤90%)
1 to 10 nM	0.1 to 1 nM	> 90%	> 90%	Cc1ncsc1-c1ccc([C@H](C)NC(=O)[C@@H]2C[C@@H](O)CN2C(=O)[C@@H](c2cc(OCCN3CCC(N4CCN5c6cc(-c7ccccc7O)nnc6N[C@H](C)[C@H]5C4)CC3)no2)C(C)C)cc1 [Compound 13]	
0.1 to 1 nM	0.1 to 1 nM	> 90%	50 to 90%	CC[C@]12CNc3nnc(-c4ccccc4O)cc3N1C[C@H](Oc1ccc(CN3CCC(c4ccc5c(c4)C(=O)N([C@H]4CCC(=O)NC4=O)C5)CC3)cn1)C2 [Compound 10]	
1 to 10 nM	1 to 10 nM	50 to 90%	50 to 90%	Cc1ncsc1-c1ccc([C@H](C)NC(=O)[C@@H]2C[C@@H](O)CN2C(=O)[C@@H](c2cc(OCCN3CCC(N4CCN5c6cc(-c7ccccc7O)nnc6N[C@@H](C)[C@H]5C4)CC3)no2)C(C)C)cc1 [Compound 14]	
0.1 to 1 nM	< 0.1 nM	> 90%	> 90%	CC[C@]12CNc3nnc(-c4ccccc4O)cc3N1C[C@H](Oc1ccc(CN3CCN(c4ccc5c(c4)C(=O)N([C@H]4CCC(=O)NC4=O)C5)CC3)cn1)C2 [Compound 9]	
0.1 to 1 nM	< 0.1 nM	> 90%	> 90%	CC[C@]12CNc3nnc(-c4ccccc4O)cc3N1C[C@H](Oc1ncc(CN3CCN(c4ccc5c(c4)C(=O)N([C@H]4CCC(=O)NC4=O)C5)CC3)nc1C)C2 [Compound 8]	
